Measured values: patent US6403597B1, “Administration of phosphodiesterase inhibitors for the treatment of premature ejaculation” (Vivus, Inc., priority 1997, dated 2002)

Legend:
[1] = tested on: heterosexual men suffering from primary premature ejaculation; experiment: Double-blind randomized crossover study of orally administered active agents in treating premature ejaculation (efficacy measures); assay type: in vivo; parameters: Anxiety score, Median: scale not given here; conditions: for comparison between treatments in ejaculation latency time and sexual satisfaction score, in words: Wilcoxon signed rank test; for IVELT, Range / Anxiety score, Range: after four-week as-needed oral treatment; for IVELT, Range: baseline range 0.5-1.5; for Anxiety score, Range: baseline range 5-25; for Anxiety score, Median / Sexual satisfaction score, Median / Sexual satisfaction score, Range: after four-week treatment; for Anxiety score, Median: oral, as needed 3 to 5 hours before intercourse, clomipramine 25 mg, sertraline 50 mg, paroxetine 20 mg, sildenafil citrate 50 mg, baseline median 12; for median intravaginal ejaculation latency time: after four-week treatments, pretreatment median 1 minutes, all P<0.0001; for Sexual satisfaction score, Median / Sexual satisfaction score, Range: first nine items of EDITS questionnaire; for Sexual satisfaction score, Median: higher scores = greater satisfaction; for IVELT, Median: intravaginal ejaculation latency time after four-week as-needed oral treatment, baseline median 1; for delay of intravaginal ejaculation latency time, in words: treatment on an as needed basis; for IVELT during washout periods, Median / IVELT during washout periods, Range: two-week washout period after the treatment
Protocol: (§1) A double-blind randomized crossover study was performed with 31 heterosexual men suffering from primary premature ejaculation, defined for the purpose of the study as an intravaginal ejaculation latency time (IVELT) of less than 2 minutes. Exclusion criteria included the following: (a) history of a psychiatric disorder; (b) current physical illness; (c) previous surgery or drug therapy with an active agent known to affect sexual function; (d) current substance abuse; (e) patients with secondary premature ejaculation combined with erectile dysfunction. All patients were asked not to use condoms or topical penile applications.
(§2) Treatment phases comprised five four-week consecutive treatment periods, each separated by a two-week washout period. […] The patients were randomly assigned to receive clomipramine hydrocloride (25 mg), sertraline hydrochloride (50 mg), paroxetine hydrochloride (20 mg), or sildenafil citrate (50 mg), or instructed to use the pause-squeeze technique developed by Masters and Johnson (Masters and Johnson, Human Sexual Inadequacy, Little, Brown & Company, Boston, Mass., 1970). The drugs were administered as needed 3 to 5 hours before planned intercourse and not more than twice a week. The pause-squeeze technique was used during intercourse. Each patient was randomly assigned to receive any of the available treatments as the first treatment and a sequence of treatment regimens. The assignment was unknown by the patient. Subjects were asked to complete a questionnaire regarding intravaginal ejaculation latency time of the last two consecutive experiences of intercourse, frequency of intercourse and possible side effects. The first nine items of the sexual satisfaction questionnaire designed by Althof et al. (Althof et al.(1999), “EDITS: Development of Questionnaires for Evaluating Satisfaction with Treatment for Erectile Dysfunction,” Urology 53:[…]) was used to measure the degree of sexual satisfaction, with higher scores indicating greater satisfaction. All measurements were obtained before treatment, after each treatment and after each washout period. Twenty healthy men who reported a sexual history free of symptoms of premature ejaculation served as a control group.
(§3) Statistical analysis: The variables in this study were statistically processed using the SPSS program for MicroSoft Windows®, standard version, release 8.0. The data were subjected to the Kolmogorov-Smirnov one-sample test, to test for normal distribution. […] Nonparametric statistical tests were used to assess differences in the measurements. Friedman's two-way analysis of variance was used for comparison between all the treatment periods. Wilcoxon signed rank test was used for evaluation of measures between baseline and after each treatment and also between every two treatment periods. The relationship between parameters was quantified by using the Spearman rank correlation coefficient. Chi-square and Fisher exact tests were used for comparison of the incidence of side effects among different treatments. Student's t-test and Chi-square test were used for comparison between the study group and control group. A two-tailed P-value <0.05 was considered significant.

[2] = tested on: heterosexual men suffering from primary premature ejaculation; conditions: male, human, in vivo, 4 weeks; for No. patients with side effects / patients with side effects (%): po
Protocol: as §1, §2, §3

## Fc1ccc([C@@H]2CCNC[C@H]2COc2ccc3c(c2)OCO3)cc1 [Paroxetine, paroxetine]
[1]
  comparison between treatments in ejaculation latency time and sexual satisfaction score, in words: superior to the pause-squeeze technique
  IVELT, Range: (2-10) min
  Anxiety score, Range: (5-23)
  Anxiety score, Median: 9
  median intravaginal ejaculation latency time: 4 min
  Sexual satisfaction score, Median: 12
  Sexual satisfaction score, Range: (0-29)
  IVELT, Median: 4 min
  delay of intravaginal ejaculation latency time, in words: statistically significant and clinically relevant delay
  IVELT during washout periods, Median: 1 min
  IVELT during washout periods, Range: (0.5-2) min
[1]; listed as paroxetine
  comparison between treatments in ejaculation latency time and sexual satisfaction score, in words: more or less equivalent to each other
[1]; of 31 men
  patients with prolongation of IVELT (%): 80.6%
[2]
  Side effects (no.): dry mouth: 2
  Side effects (no.): nausea: 1
  Side effects (no.): yawning: 2
  No. patients with side effects: 5
  patients with side effects (%): 17.2%

## CCCc1nn(C)c2c(=O)[nH]c(-c3cc(S(=O)(=O)N4CCN(C)CC4)ccc3OCC)nc12 [Sildenafil, 5-[2-ethoxy-5-(4-methyl-1-piperazinylsulphonyl)phenyl]-1-methyl-3-n-propyl-1,6-dihydro-7H-pyrazolo[4,3-dipyrimidin-7-one]]
[1]
  IVELT, Range: (5-30) min
  Anxiety score, Range: (4-15)
  Anxiety score, Median: 8
  median intravaginal ejaculation latency time: 15 min
  Sexual satisfaction score, Median: 30
  Sexual satisfaction score, Range: (17-34)
  IVELT, Median: 15 min
  delay of intravaginal ejaculation latency time, in words: statistically significant and clinically relevant delay
  IVELT during washout periods, Median: 1.75 min
  IVELT during washout periods, Range: (0.5-8) min
[1]; comparison between all treatment periods
  median IVELT, median sexual satisfaction score and median IVELT during the washout period, according to Friedman's test, in words: significant increase
[1]; in vivo
  effectiveness in the treatment of premature ejaculation, in words: highly effective
[1]; of 31 men
  patients with prolongation of IVELT (%): over 90%
  patients with prolongation of IVELT (number of patients): 28 patients
[1]; of 31 men, listed as sildenafil
  patients with prolongation of IVELT (%): 90.3%
[1]; versus pretreatment
  factor by which IVELT was increased, on average: 15
[2]
  Side effects (no.): flushing: 2
  Side effects (no.): headache: 2
  Side effects (no.): nasal congestion: 1
  No. patients with side effects: 5
  patients with side effects (%): 17.9%

## CN[C@H]1CC[C@@H](c2ccc(Cl)c(Cl)c2)c2ccccc21 [Sertraline, sertraline]
[1]
  comparison between treatments in ejaculation latency time and sexual satisfaction score, in words: more or less equivalent to each other
  IVELT, Range: (1-10) min
  Anxiety score, Range: (5-22)
  Anxiety score, Median: 11
  median intravaginal ejaculation latency time: 3 min
  Sexual satisfaction score, Median: 10
  Sexual satisfaction score, Range: (0-31)
  IVELT, Median: 3 min
  delay of intravaginal ejaculation latency time, in words: statistically significant and clinically relevant delay
  IVELT during washout periods, Median: 1 min
  IVELT during washout periods, Range: (0.5-2) min
[1]; of 31 men
  patients with prolongation of IVELT (%): 71.2%
[2]
  Side effects (no.): anorexia: 1
  Side effects (no.): drowsiness: 1
  Side effects (no.): nausea: 1
  No. patients with side effects: 3
  patients with side effects (%): 10.3%

## CN(C)CCCN1c2ccccc2CCc2ccc(Cl)cc21 [Clomipramine, clomipramine]
[1]
  comparison between treatments in ejaculation latency time and sexual satisfaction score, in words: more or less equivalent to each other
  IVELT, Range: (1-8) min
  Anxiety score, Range: (4-22)
  Anxiety score, Median: 11
  median intravaginal ejaculation latency time: 4 min
  Sexual satisfaction score, Median: 11
  Sexual satisfaction score, Range: (0-25)
  IVELT, Median: 4 min
  delay of intravaginal ejaculation latency time, in words: statistically significant and clinically relevant delay
  IVELT during washout periods, Median: 1 min
  IVELT during washout periods, Range: (0.5-1.5) min
[1]; of 31 men
  patients with prolongation of IVELT (%): 71%
[2]
  Side effects (no.): drowsiness: 1
  Side effects (no.): dry mouth: 3
  Side effects (no.): nausea: 1
  Side effects (no.): sleepiness: 2
  No. patients with side effects: 7
  patients with side effects (%): 25%
